Laboratory results: patent EP1373298B1, “A COMPOSITION CONTAINING NOVEL COMPOUND CORNICULATONIN HAVING ANTIFUNGI PROPERTIES AND A PROCESS FOR PREPARING THE SAME” (COUNCIL OF SCIENTIFIC AND INDUSTRIAL RESEARCH, priority 2001, dated 2002)

How the values were obtained:
[1] = test system: Cryptococcus neoformans; assay: Disk diffusion assay, zone of inhibition; assay type: cell-based; conditions: 250 µg. disk^-1, incubated 42-120 hrs at room temperature
Excerpt: (§1) Agar: Czapek Malt Agar (Himedia laboratories Ltd.) was used for culturing Microsporum gypseum, Trichophyton mentagrophytes T. tonsurans, T. violaceum, Aspergillus fresenii and A. niger. Mycological Agar (Himedia Laboratories Ltd) was used for Cryptococcus neoformans and Candida sp.
(§2) Pathogenic fungal strains of yeast and filamentous fungi identified and gifted by Dr. Savio from Goa Medical College, Bambolim, were used for the test. Strains of Aspergillus were isolated from the infected wheat bread with sterile needle; fungal material was surface sterilized using 0.5 % sodium hypochlorite for 2-3 minutes, and then washed with small brush in sterile distilled water. Washed fungal material was transferred using needle into the sterile culture media and subcultured for purification by following standard methods (Collins and Taylor, 1967). Taxonomic identification was done by using various standard keys (Ainswort et al., 1973; Onion et al., 1981) and identification confirmed by Alka Pandey of Agarkar Research Institute, Pune.
(§3) Yeast strains (Candida sp. and Cryptococcus neoformans) were maintained by single colony transfer on mycological agar (Himedia Laboratories Ltd) at the refrigeration temperature (3-5°C). Filamentous fungi were maintained on Czapek Malt agar slants at refrigeration temperature (3-5°C), until needed for the assay.
(§4) Disk diffusion assay: The disk diffusion assay was used for screening of antifungal activity of the compound. The stock solution for the test was prepared by dissolving 5 mg of the compound of formula 1 in 200 µl dimethylsulphoxide (DMSO). From the stock solution 10 µl were spread on the paper disc so as to obtain the final concentration of 250 µg disk^-1. Control disk was applied reconstituted with only dimethylsulphoxide and were dried at 28-29°C. Completely dried disk was applied to innoculated plates. The plates were incubated at room temperature for the period between 42- 120 hrs. to obtain maximum growth in the culture media. The zones of inhibition around the disks were measured.

[2] = test system: Microsporum gypseum; assay: Disk diffusion assay, zone of inhibition; assay type: cell-based; conditions: 250 µg. disk^-1, incubated 42-120 hrs at room temperature
Excerpt: as §1, §2, §3, §4

[3] = test system: Aspergillus niger; assay: Disk diffusion assay, zone of inhibition; assay type: cell-based; conditions: 250 µg. disk^-1, incubated 42-120 hrs at room temperature
Excerpt: as §1, §2, §3, §4

[4] = test system: T. violaceum; assay: Disk diffusion assay, zone of inhibition; assay type: cell-based; conditions: 250 µg. disk^-1, incubated 42-120 hrs at room temperature
Excerpt: as §1, §2, §3, §4

[5] = test system: T. tonsurans; assay: Disk diffusion assay, zone of inhibition; assay type: cell-based; conditions: 250 µg. disk^-1, incubated 42-120 hrs at room temperature
Excerpt: as §1, §2, §3, §4

[6] = test system: Trichophyton mentagrophytes; assay: Disk diffusion assay, zone of inhibition; assay type: cell-based; conditions: 250 µg. disk^-1, incubated 42-120 hrs at room temperature
Excerpt: as §1, §2, §3, §4

[7] = test system: Candida sp.; assay: Disk diffusion assay, zone of inhibition; assay type: cell-based; conditions: 250 µg. disk^-1, incubated 42-120 hrs at room temperature
Excerpt: as §1, §2, §3, §4

[8] = test system: Aspergillus fresenii; assay: Disk diffusion assay, zone of inhibition; assay type: cell-based; conditions: 250 µg. disk^-1, incubated 42-120 hrs at room temperature
Excerpt: as §1, §2, §3, §4

[9] = test system: Cryptococcus neoformans; assay: Minimum inhibitory concentration (MIC), disk diffusion method; assay type: cell-based; conditions: disks of 50 to 3.12 µg, 42-120 hrs at room temperature
Excerpt: as §1, §2, §3
(§5) Innocula were adjusted to 100 µl of Cryptococcus neoformans, Candida sp., Microsporum gypseum, Trichophyton tonsurans, T. violaceum and Trichophyton mentagrophytes and spread on the appropriate plates, excess moisture was allowed to absorb for 10 minutes before applying disks. Immediately prior to the assay, the testing compound of formula 1, object of the present invention, the reference compounds amphotericin B and nystatin, potency approx:750µ/mg and 4800USPunit/mg respectively, were reconstituted in triplicate in dimethylsulfoxide. […] From the stock solution 10 µl were spread on the paper disk so as to obtain final concentration of 50 µg disc^-1, 25µg disc^-1, 12.5 µg disc^-1, 6.25 µg disc^-1 and 3.12 µg disk^-1. Disks were dried at reduced pressure in the dessicator, at 28-29°C and applied to inoculated plates.
(§6) In testing, the compound of formula 1 was reconstituted in dimethylsulfoxide (DMSO) immediately prior to all assays. Dimethylsulfoxide (DMSO) alone had no detectable inhibitory effect on any of the tested microbes. Compound of formula 1 was tested against a diverse collection of yeast and filamentous fungi, some of which are resistant to the reference compound nystatin. Filamentous fungi were nystatin resistant.

[10] = test system: Microsporum gypseum; assay: as above; assay type: cell-based; conditions: disks of 50 to 3.12 µg, 42-120 hrs at room temperature
Excerpt: as §1, §2, §3, §5, §6

[11] = test system: T. violaceum; assay: as above; assay type: cell-based; conditions: disks of 50 to 3.12 µg, 42-120 hrs at room temperature
Excerpt: as §1, §2, §3, §5, §6

[12] = test system: T. tonsurans; assay: as above; assay type: cell-based; conditions: disks of 50 to 3.12 µg, 42-120 hrs at room temperature
Excerpt: as §1, §2, §3, §5, §6

[13] = test system: Trichophyton mentagrophytes; assay: as above; assay type: cell-based; conditions: disks of 50 to 3.12 µg, 42-120 hrs at room temperature
Excerpt: as §1, §2, §3, §5, §6

[14] = test system: Candida sp.; assay: as above; assay type: cell-based; conditions: disks of 50 to 3.12 µg, 42-120 hrs at room temperature
Excerpt: as §1, §2, §3, §5, §6

[15] = test system: Aspergillus fresenii; assay: as above; assay type: cell-based; conditions: disks of 50 to 3.12 µg, 42-120 hrs at room temperature
Excerpt: as §1, §2, §3, §5, §6

[16] = test system: Aspergillus niger; assay: as above; assay type: cell-based; conditions: disks of 50 to 3.12 µg, 42-120 hrs at room temperature
Excerpt: as §1, §2, §3, §5, §6

[17] = test system: Cladosporium cucumerinum; conditions: TLC bioassay; cited from earlier work

Compound	zones of inhibition [1] [mm]	zones of inhibition [2] [mm]	zones of inhibition [3] [mm]	zones of inhibition [4] [mm]	zones of inhibition [5] [mm]	zones of inhibition [6] [mm]	zones of inhibition [7] [mm]	zones of inhibition [8] [mm]	MIC [9]	MIC [10]	MIC [11]	MIC [12]	MIC [13]	MIC [14]	MIC [15]	MIC [16]	antifungal at [17] [µg]
3-O-α-rhamnopyranosyl-rhamnopyranosyl-glucopyranosyl-glucoronopyranosylgluco-pyrano side 16 α-hydroxy-13, 28-epoxy oleanane [Compound 1]	9	14	4	13	14	12	9	10	6.25 -12.5 µg. disk^-1	12.5 - 25 µg. disk^-1	25 - 50 µg. disk^-1	12.5 - 25 µg. disk^-1	25 - 50 µg. disk^-1	6.25 -12.5 µg. disk^-1	25 -50 µg. disk^-1	–	–
C[C@@H]1[C@H](O)[C@@H](C)/C=C/C=C/C=C/C=C/C=C/C=C/C=C/[C@H](O[C@@H]2O[C@H](C)[C@@H](O)[C@H](N)[C@@H]2O)C[C@@H]2O[C@](O)(C[C@@H](O)C[C@@H](O)[C@H](O)CC[C@@H](O)C[C@@H](O)CC(=O)O[C@H]1C)C[C@H](O)[C@H]2C(=O)O [Amphotericin B, reference compound]	–	–	–	–	–	–	–	–	3.12 - 6.25 µg. disk^-1	6.25 -12.5 µg. disk^-1	6.25 -12.5 µg. disk^-1	6.25 - 12.5 µg. disk^-1	6.25 - 12.5 µg. disk^-1	3.12 - 6.25 µg. disk^-1	12.5 -25 µg. disk^-1	12.5 -25 µg. disk^-1	–
C[C@@H]1[C@H](O)[C@@H](C)/C=C/C=C/CC/C=C/C=C/C=C/C=C/C(O[C@H]2O[C@H](C)[C@@H](O)[C@H](N)[C@@H]2O)CC2O[C@](O)(CC(O)C(O)CCC(O)CC(O)CC(O)CC(=O)O[C@H]1C)CC(O)C2C(=O)O (some centres unmarked) [Nystatin]	–	–	–	–	–	–	–	–	6.25 - 12.5 µg. disk^-1	–	–	–	–	6.25 -12.5 µg. disk^-1	–	–	–
Sakurasaponin	–	–	–	–	–	–	–	–	–	–	–	–	–	–	–	–	1
